Drawing on ChEMBL document CHEMBL1155094, “Isosteric exchange of the acylsulfonamide moiety in Abbott's Bcl-XL protein interaction antagonist” (Bioorg Med Chem Lett, 2008), this text covers Ki for three compounds.

The experiment addresses T1, Bcl-2-like protein 2 (Homo sapiens, UniProt Q92843).
T1 sequence (Q92843 whole entry): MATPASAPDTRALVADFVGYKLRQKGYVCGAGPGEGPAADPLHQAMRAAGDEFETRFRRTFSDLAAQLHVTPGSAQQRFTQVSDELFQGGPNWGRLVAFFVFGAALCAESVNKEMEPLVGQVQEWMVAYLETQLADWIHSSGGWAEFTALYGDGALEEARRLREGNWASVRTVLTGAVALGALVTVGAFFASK
The experiment can be described thus: Inhibition of 5-carboxyfluorescein-labeled Flu-Bak-BH3 peptide binding to Bcl-w by fluorescence polarization assay. On the technique in general: Polarisation of emitted light reports the rotation of a fluorescent probe.

Broadly, the Ki is a measure of affinity in units of concentration, obtained from inhibition or displacement. A higher Ki goes with a looser hold on the target. On to `CN(CC(=O)Nc1ccc(N2CCCCC2)c([N+](=O)[O-])c1)C(=O)c1ccc(-c2ccccc2)cc1`, for which the affinity corresponds to a Ki of 10.8 µM. This counts as double-digit micromolar.

Compound `CN(CC(=O)Nc1ccc(NC23CC4CC(CC(C4)C2)C3)c([N+](=O)[O-])c1)C(=O)c1ccc(-c2ccccc2)cc1` registered a Ki of 9.43 µM.

`CN(CC(=O)Nc1ccc(N2CCSCC2)c([N+](=O)[O-])c1)C(=O)c1ccc(-c2ccccc2)cc1` returned a Ki of 13 µM.
